≈ marks a conversion by molar mass, not a printed value. Like-named read-outs stand apart in the source and are kept apart here.
Key:
zebrafish = test: Toxicity test on zebrafish, semi-static method; assay type: in vivo, Brachydanio rerio
Description: Test fish and water: zebrafish (Brachydanio rerio) were purchased from Zhejiang Academy of Agricultural Sciences and were of uniform size with an average body length of 2-3 cm and an average body weight of 0.3 g. They were domesticated for 7 days indoors before the test. The natural mortality rate was zero. Feeding was stopped 1 day before the test and the fish were not fed during the test. The test water was tap water after removing residual chlorine by exposure to the sun for more than 24 hours, and the pH was 6.8.
The sample was formulated into 50 mg/ml mother liquor with DMF.
Method: Semi-static method. Three level differences were set for each sample:
0.5 ppm, 1.0 ppm and 2.0 ppm, and three sets of parallels were set for each level difference, 10 zebrafish were raised for each group, and blank controls (one group without agents and one group with only solvent) were set. The corresponding volume of mother liquor was taken according to the concentration as required for each sample, and the volume of each sample was adjusted to 150 μl with DMF, and then each sample was added to the test group (containing 1.6 L of water). The room temperature was controlled at 22±2° C. for 96 hours, and the water was changed every 24 hours and the samples were re-added. The fish mortality rate was recorded for the first 8 hours and at 24, 48, 72, and 96 hours, and the dead fish were removed in time. Finally, the agents were divided into three grades according to the values of LC50: low-toxic pesticides with a LC50>10 ppm, middle-toxic pesticides with a LC50 of 1.0-10 ppm, and high-toxic pesticides with a LC50<1.0 ppm.

cabbage Phyllotreta = test: Field efficacy test against cabbage Phyllotreta; assay type: in vivo; details: 1 day, 3 days and 7 days after medication
Description: In the laboratory, the above-mentioned original medicines were respectively formulated into the following formulations for later use: 1.8% abamectin emulsifiable concentrate, 1.8% tenvermectin A emulsifiable concentrate, 1.8% tenvermectin B emulsifiable concentrate, 5% imidacloprid emulsifiable concentrate, 5% acetamiprid emulsifiable concentrate, 2.5% lambda-cyhalothrin emulsifiable concentrate.
The test was conducted in Linhai City, and the test crop was cabbage, and the object to be controlled was Phyllotreta.
The experiment consisted of 7 treatments, 3 replicates per treatment, 21 sections in total. The sections were randomly arranged, the area for each section was 66.7 m^2. A type of knapsack manual sprayer was used to spray once, the amount of each section was calculated according to the amount of 50 ml/mu, and the leaves were sprayed evenly. Each treatment was isolated from each other to avoid mutual interference. A blank control was set, and the blank control was sprayed with water. The population base of insects was investigated before medication, and the number of live insects was investigated 1 day, 3 days, and 7 days after medication, and a total of 4 investigations were conducted. 20 plants were randomly investigated per section. The rate of reduction of population was calculated and the control effect was corrected. No other pesticides were used during the test. […]

[1] = system: Coptotermes formosanus Shiraki; test: Indoor toxicity against Coptotermes formosanus Shiraki, topical drop with microinjector; assay type: in vivo; details: for Relative toxicity: maximum LC50 divided by LC50 of each agent, abamectin = 1
Description: Specifically, abamectin was diluted to 0.01 mg/L, 0.025 mg/L, 0.05 mg/L, 0.10 mg/L and 0.25 mg/L; tenvermectin A and tenvermectin B were diluted to 0.001 mg/L, 0.0025 mg/L, 0.005 mg/L, 0.01 mg/L and 0.025 mg/L. The termites to be tested were placed in culture dishes with a diameter of 15 cm, and 20 worker ants were placed in each dish. During the test, a microinjector was used to drop 1 μI of the solution to the thorax and abdome of each termite for a total of 3 repetitions. One fungus comb was placed in each dish for termites to inhabit and a wet absorbent cotton ball was placed to moisturize. After completing dropping the solution, the culture dish was placed in a chamber under a constant temperature of 18±1° C. and a constant humidity and was cultivated in dark conditions, the death conditions were observed 24 hours and 48 hours after dropping the solution respectively. A writing brush was used to touch the various parts of the bodies of the termites and the termites that are completely immobile were judged to be dead.

[2] = system: Laodelphax striatellus imagoes; test: whole plant or invertebrate; details: for Relative toxicity: maximum LC50 divided by LC50 of each agent, imidacloprid = 1
Description: Each original medicine was dissolved in DMF and formulated into a 10000 mg/L solution for later use.
Test insect source: The Laodelphax striatellus imagoes were collected in the rice fields of Jiaxing, Zhejiang, and were raised indoors with rice seedlings.
The soaking seedling method was used in this test. The test agents were diluted with tap water into five series of concentrations on the basis of pre-test to be used as test solutions. Specifically, lambda-cyhalothrin and imidacloprid were diluted to 5 mg/L, 10 mg/L, 25 mg/L, 50 mg/L and 100 mg/L; abamectin was diluted to 0.25 mg/L, 0.5 Mg/L, 1.0 mg/L, 2.5 mg/L and 5.0 mg/L; tenvermectin A was diluted to 0.05 mg/L, 0.10 mg/L, 0.25 mg/L, 0.5 mg/L and 1.0 mg/L. Rice seedlings that are sown indoors for about 25 days and have no rice planthopper eggs were taken, a few rice roots were left, the seedlings were soaked in pre-formed solution for 30 seconds then they were taken out and dried, and were put into a 3 cm×20 cm test tube. There was a little water at the bottom of the tube. 2-3 rice seedlings per tube, three repetitions per treatment, and the one treated with water was used as a control. Each tube receives 40-50 heads of Laodelphax striatellus, and the tubes were sealed with black cloth and were placed in a worm room under a temperature of (26±1) ° C. After 72 hours of treatment, the number of dead insects was checked. […] Experimental data statistics and analysis were performed using spss 19 software.
The relative toxicity index of the agent having the largest LC50 was set to be 1, and the relative toxicity index of each agent was determined by dividing the maximum LC50 by the LC50 value of each agent.

[3] = system: Nilaparvata lugens imagoes; test: Indoor toxicity against Nilaparvata lugens imagoes, soaking seedling method; assay type: in vivo; details: for LC50: Nilaparvata lugens imagoes, soaked rice seedlings, 72 hours, 26±1 °C; for Relative toxicity: maximum LC50 divided by LC50 of each agent, imidacloprid = 1
Description: Test insect source: the Nilaparvata lugens imagoes were collected from the rice field in Jiaxing, Zhejiang and were raised indoors with rice seedlings.
The soaking seedling method was used in this test.

[4] = system: Frankliniella occidentalis Pergande imagoes; test: Indoor toxicity against Frankliniella occidentalis Pergande imagoes, impregnation method; assay type: in vivo; details: for LC50: Frankliniella occidentalis Pergande imagoes, impregnation, 48 hours after medication, 26 °C; for Relative toxicity: maximum LC50 divided by LC50 of each agent, imidacloprid = 1
Description: The impregnation method was used. […] The quantitative Frankliniella occidentalis Pergande (15-20 heads) in the suction trap were flicked into the solution in the insect box, and the solution was gently stirred with a glass rod for 10 seconds, and the insect box was quickly removed from the solution, and when the solution was drained out from the insect box, the residual solution on the copper net was blotted with absorbent paper from the bottom of the insect box, and then a 3 cm long kidney bean slice (Frankliniella occidentalis Pergande feed) was put into the insect box, and finally the insect box was sealed with a parafilm. […] The sealed insect box was placed in a HPG280H light incubator under a temperature of 26° C. and a humidity of 70%.

Bemisia tabaci imagoes = test: Indoor toxicity against Bemisia tabaci imagoes, liquid membrane impregnation method of blades; assay type: in vivo; details: for Relative toxicity: maximum LC50 divided by LC50 of each agent, acetamiprid = 1
Description: The liquid membrane impregnation method of blades was used. […] One tomato leaf was placed in each culture dish. Three repetitions per treatment, a leaf was soaked with water, dried, and then was placed in a culture dish to be used as a control. The Bemisia tabaci imagoes were gently patted into the culture dish, about 30 to 40 imagoes in each dish. The dishes were sealed with plastic wrap, several small holes were made on the plastic wrap to facilitate ventilation. After 24 hours, the death of Bemisia tabaci imagoes was checked under a binocular microscope (the anatomical needle was used to gently touch the Bemisia tabaci imagoes, and the motionless ones were regarded to be dead). Experimental data statistics and analysis were performed with spss 19 software.

[5] = Laodelphax striatellus, in Oryza sativa, 72 h
[6] = Bemisia tabaci imagoes, soaked tomato leaves, death checked after 24 hours

Ivermectin
Surviving condition (survival rate %) (zebrafish; 0.5 ppm, 8 h): 0% | Surviving condition (survival rate %) (zebrafish; 1.0 ppm, 8 h): 0% | Surviving condition (survival rate %) (zebrafish; 2.0 ppm, 8 h): 0%

CC[C@H]1O[C@]2(CCC1C)C[C@@H]1C[C@@H](C/C=C(\C)C(OC3C[C@H](OC)C(OC4C[C@H](OC)C(O)[C@H](C)O4)[C@H](C)O3)C(C)/C=C/C=C3\CO[C@@H]4[C@H](O)C(C)=C[C@@H](C(=O)O1)[C@]34O)O2 (some centres unmarked) [Tenvermectin B, tenvermectin B]
control effect on cabbage Phyllotreta (in words) (cabbage Phyllotreta): no control effect | LC50 ([1]; in vivo): 0.0066 µg/mL (≈ 0.00779 µM) | Relative toxicity [1]: 6.21 | Surviving condition (survival rate %) (zebrafish; 0.5 ppm, 8 h): 100% | Surviving condition (survival rate %) (zebrafish; 0.5 ppm, 24 h): 70% | Surviving condition (survival rate %) (zebrafish; 0.5 ppm, 48 h): 50% | Surviving condition (survival rate %) (zebrafish; 0.5 ppm, 72 h): 0% | Surviving condition (survival rate %) (zebrafish; 1.0 ppm, 8 h): 53% | Surviving condition (survival rate %) (zebrafish; 1.0 ppm, 24 h): 0% | Surviving condition (survival rate %) (zebrafish; 2.0 ppm, 8 h): 10% | Surviving condition (survival rate %) (zebrafish; 2.0 ppm, 24 h): 0%

O=[N+]([O-])NC1=NCCN1Cc1ccc(Cl)nc1 [Imidacloprid]
LC50 [2, 5]: 31.8 µg/mL (≈ 124 µM) | Relative toxicity [2]: 1 | LC50 ([3]; read-out: LC50): 33.9 µg/mL (≈ 132 µM) | Relative toxicity [3]: 1 | LC50 ([4]; read-out: LC50): 39.1 µg/mL (≈ 153 µM) | Relative toxicity [4]: 1

CC1(C)[C@H](C(=O)O[C@H](C#N)c2cccc(Oc3ccccc3)c2)[C@@H]1/C=C(\Cl)C(F)(F)F (racemic) [Lambda-cyhalothrin]
LC50 [2, 5]: 12 µg/mL (≈ 26.7 µM) | Relative toxicity [2]: 2.648 | LC50 ([3]; read-out: LC50): 17.7 µg/mL (≈ 39.4 µM) | Relative toxicity [3]: 1.923

CO[C@H]1CC(OC2[C@H](C)OC(OC3/C(C)=C/C[C@@H]4C[C@@H](C[C@]5(CCC(C)[C@@H](C)O5)O4)OC(=O)[C@@H]4C=C(C)[C@@H](O)[C@H]5OC/C(=C\C=C\C3C)[C@]54O)C[C@@H]2OC)O[C@@H](C)C1O (some centres unmarked) [Tenvermectin A, tenvermectin A]
LC50 ([2]; in vivo): 0.296 µg/mL (≈ 0.355 µM) | Relative toxicity [2]: 107.490 | control effect on cabbage Phyllotreta (in words) (cabbage Phyllotreta): no control effect | LC50 ([1]; in vivo): 0.0086 µg/mL (≈ 0.0103 µM) | Relative toxicity [1]: 4.77 | Surviving condition (survival rate %) (zebrafish; 0.5 ppm, 8 h): 100% | Surviving condition (survival rate %) (zebrafish; 0.5 ppm, 24 h): 100% | Surviving condition (survival rate %) (zebrafish; 0.5 ppm, 48 h): 100% | Surviving condition (survival rate %) (zebrafish; 0.5 ppm, 72 h): 100% | Surviving condition (survival rate %) (zebrafish; 0.5 ppm, 96 h): 100% | Surviving condition (survival rate %) (zebrafish; 1.0 ppm, 8 h): 100% | Surviving condition (survival rate %) (zebrafish; 1.0 ppm, 24 h): 100% | Surviving condition (survival rate %) (zebrafish; 1.0 ppm, 48 h): 100% | Surviving condition (survival rate %) (zebrafish; 1.0 ppm, 72 h): 100% | Surviving condition (survival rate %) (zebrafish; 1.0 ppm, 96 h): 100% | Surviving condition (survival rate %) (zebrafish; 2.0 ppm, 8 h): 100% | Surviving condition (survival rate %) (zebrafish; 2.0 ppm, 24 h): 100% | Surviving condition (survival rate %) (zebrafish; 2.0 ppm, 48 h): 100% | Surviving condition (survival rate %) (zebrafish; 2.0 ppm, 72 h): 93% | Surviving condition (survival rate %) (zebrafish; 2.0 ppm, 96 h): 80% | LC50 (Bemisia tabaci imagoes; [6]): 0.023 µg/mL (≈ 0.0276 µM) | Relative toxicity (Bemisia tabaci imagoes): 110.478

CC[C@H](C)C1O[C@]2(C=C[C@@H]1C)C[C@@H]1C[C@@H](C/C=C(\C)[C@@H](O[C@H]3C[C@H](OC)[C@@H](O[C@H]4C[C@H](OC)[C@H](NC)[C@H](C)O4)[C@H](C)O3)[C@@H](C)/C=C/C=C3\CO[C@@H]4[C@H](O)C(C)=C[C@@H](C(=O)O1)[C@]34O)O2.O=C(O)c1ccccc1 (some centres unmarked) [Methylamino abamectin benzoate]
Surviving condition (survival rate %) (zebrafish; 0.5 ppm, 8 h): 0% | Surviving condition (survival rate %) (zebrafish; 1.0 ppm, 8 h): 0% | Surviving condition (survival rate %) (zebrafish; 2.0 ppm, 8 h): 0% | LC50 [4]: 0.318 µg/mL | Relative toxicity [4]: 122.896

Milbemycin
Surviving condition (survival rate %) (zebrafish; 0.5 ppm, 8 h): 0% | Surviving condition (survival rate %) (zebrafish; 1.0 ppm, 8 h): 0% | Surviving condition (survival rate %) (zebrafish; 2.0 ppm, 8 h): 0% | LC50 (Bemisia tabaci imagoes; in vivo): 0.210 µg/mL | Relative toxicity (Bemisia tabaci imagoes): 12.100

C/C(=N\C#N)N(C)Cc1ccc(Cl)nc1 [Acetamiprid]
LC50 (Bemisia tabaci imagoes; Bemisia tabaci, in Solanum lycopersicum, 24 h): 2.54 µg/mL (≈ 11.4 µM) | Relative toxicity (Bemisia tabaci imagoes): 1

Abamectin
LC50 ([2]; Laodelphax striatellus imagoes, soaked rice seedlings, 72 hours, 26±1 °C): 3.101 µg/mL | Relative toxicity [2]: 10.260 | LC50 [3]: 3.062 µg/mL | Relative toxicity [3]: 11.063 | LC50 ([1]; Coptotermes formosanus worker ants, 1 μl dropped per termite, 18±1 °C, observed 24 and 48 hours (time of LC50 not stated)): 0.041 µg/mL | Relative toxicity [1]: 1 | Surviving condition (survival rate %) (zebrafish; 0.5 ppm, 8 h): 0% | Surviving condition (survival rate %) (zebrafish; 1.0 ppm, 8 h): 0% | Surviving condition (survival rate %) (zebrafish; 2.0 ppm, 8 h): 0% | LC50 (Bemisia tabaci imagoes; [6]): 0.225 µg/mL | Relative toxicity (Bemisia tabaci imagoes): 11.293 | LC50 [4]: 2.648 µg/mL | Relative toxicity [4]: 14.759
